One experiment has as its target M. tuberculosis LeuRS (Mycobacterium tuberculosis, UniProt P9WFV1). As to the kind of experiment: biochemical. Also noted: species or system M. tuberculosis H37Rv.
Another experiment has as its system M. tuberculosis H37Rv. In words: MIC for M. tuberculosis H37Rv (resazurin/alamarBlue). In kind it is cell-based, Mycobacterium tuberculosis. Particulars: for MIC: Mycobacterium tuberculosis, H37RV, read-out: MIC M.tb H37Rv; for improvement of MIC values over compound 1: M. tuberculosis H37Rv.
The subject of another experiment is COX1 in HepG2 cells. In words: Mitochondrial protein synthesis assay, COX1 level. Format: cell-based. Particulars: Homo sapiens, 168 h; HepG2, 7 days; read-out: Mean EC50 ± SD COX1. Here is the method:
(§1) The human liver carcinoma-derived HepG2 cell line was obtained from the ATCC (ATCC HB-8065). HepG2 cells were grown in Dulbecco's modified Eagle's medium containing 10% fetal calf serum, 1 mM sodium pyruvate, 0.1 mM essential amino acids, and 50 U/ml penicillin-streptomycin at 37°C with 5% CO2. HepG2 cells were seeded into 96-well plates at 3,000 cells/200 μl/well in cell culture medium. Cells were then grown in the presence of the compounds at 37°C in 10% CO2 for 7 days in at least duplicate concentrations, with the medium and compounds being replaced on the fourth day. After 7 days, the levels of SDHA (subunit A of the succinate dehydrogenase complex) and COX1 (cytochrome c oxidase) were determined by using the MitoSciences In-Cell enzyme-linked immunosorbent assay (ELISA) kit. Janus green staining was used to determined cell viability after 7 days (In-Cell ELISA kit, catalog number MS643).

In the next experiment the test system is SDHA in HepG2 cells. As to the kind of experiment: Mitochondrial protein synthesis assay, SDHA level. Particulars: Homo sapiens, 168 h; HepG2, 7 days; read-out: Mean EC50 ± SD SDHA. Format: cell-based. Here is the method: as §1
The next experiment relates to HepG2 cells. In words: HepG2 cell viability (Janus green staining). Format: cell-based. Particulars: Homo sapiens, 168 h, HepG2, 7 days, read-out: Mean EC50 ± SD Cell viability. Here is the method: as §1
Another experiment has as its system Vero cells. As to the kind of experiment: In vitro cytotoxicity assay (MTT). In kind it is cell-based, African green monkey. Particulars: Chlorocebus sabaeus, 72 h. As to the method:
Vero epithelial cells (from African green monkey; ATCC CCL-81) were cultured in Dulbecco's modified Eagle's medium (DMEM) supplemented with 10% fetal bovine serum (FBS) and maintained in a humidified incubator (37°C in 5% CO2). Cells were dislodged with a cell scraper, collected by centrifugation, resuspended in fresh medium at ∼10^6 cells/ml, dispensed into 96-well microtiter plates ([…]), and incubated for 18 h at 37°C. Twofold serial dilutions of test compounds in DMEM with FBS were subsequently added, and cells were incubated for another 72 h. In triplicate studies, the cytopathic effects of compounds were evaluated colorimetrically by using the 3-(4,5-dimethyl-2-thiazolyl)-2,5-diphenyl-2H-tetrazolium bromide (MTT) cell proliferation assay (ATCC). IC50 data were obtained from dose-response curves plotted by using GraphPad Prism 5.

We go through 14 compounds from publication PMC5038265 (Antimicrobial Agents and Chemotherapy, 2016).

≈ marks a conversion by molar mass, not a printed value. Where two headings read alike, the source gives them in different places.

The IC50 is the concentration that gives 50% inhibition. By MIC is commonly meant the least concentration at which growth counts as inhibited. In general, EC50 refers to the midpoint of the concentration-response curve.

Sequence of M. tuberculosis LeuRS (P9WFV1 whole entry): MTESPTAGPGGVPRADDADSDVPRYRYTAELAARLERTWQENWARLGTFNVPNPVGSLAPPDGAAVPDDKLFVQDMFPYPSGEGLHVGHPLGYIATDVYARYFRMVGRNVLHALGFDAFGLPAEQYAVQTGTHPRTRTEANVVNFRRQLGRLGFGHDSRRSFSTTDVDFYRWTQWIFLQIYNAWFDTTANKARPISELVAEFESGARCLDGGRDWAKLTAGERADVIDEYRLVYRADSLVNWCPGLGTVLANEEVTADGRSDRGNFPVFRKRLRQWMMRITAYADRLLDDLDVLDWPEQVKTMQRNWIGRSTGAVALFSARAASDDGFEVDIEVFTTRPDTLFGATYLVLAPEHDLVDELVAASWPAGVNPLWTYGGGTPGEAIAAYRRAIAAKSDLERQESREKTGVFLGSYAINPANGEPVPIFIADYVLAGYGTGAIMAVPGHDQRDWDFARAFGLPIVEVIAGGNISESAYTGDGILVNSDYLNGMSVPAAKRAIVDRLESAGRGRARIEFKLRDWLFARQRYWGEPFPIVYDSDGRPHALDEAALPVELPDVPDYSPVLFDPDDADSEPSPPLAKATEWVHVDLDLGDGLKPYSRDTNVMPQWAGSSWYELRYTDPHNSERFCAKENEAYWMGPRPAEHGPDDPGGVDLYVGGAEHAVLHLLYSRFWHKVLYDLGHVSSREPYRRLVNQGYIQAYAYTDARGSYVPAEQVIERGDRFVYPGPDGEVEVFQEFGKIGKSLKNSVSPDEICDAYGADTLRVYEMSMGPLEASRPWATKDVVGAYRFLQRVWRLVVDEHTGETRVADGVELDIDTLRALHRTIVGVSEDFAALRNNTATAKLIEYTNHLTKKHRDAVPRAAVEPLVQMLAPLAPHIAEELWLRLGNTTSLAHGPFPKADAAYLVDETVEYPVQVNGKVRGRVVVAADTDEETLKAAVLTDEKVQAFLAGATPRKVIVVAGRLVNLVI

Take `OB1OCc2ccccc21` [AN2679]: the half-inhibitory concentration (IC50) at M. tuberculosis LeuRS (read-out: IC50 M.tb LeuRS) turned out to be 21.3 µM. Also, the MIC with M. tuberculosis H37Rv was 7.5 µg/mL (≈ 56 µM).

Regarding `OCCCOc1cccc2c1B(O)OC2` [AN3016], the concentration for half-maximal inhibition (IC50) on M. tuberculosis LeuRS (read-out: IC50 M.tb LeuRS) is 3.5 µM. In the experiment with M. tuberculosis H37Rv, the “MIC M.tb H37Rv” value came out at 1.0 µg/mL (≈ 4.81 µM) and the minimum inhibitory concentration (MIC) turned out to be 1 µg/mL (≈ 4.81 µM).

With `NCC1OB(O)c2ccccc21` (stereo not shown) [AN3017], the half-maximal inhibitory concentration (IC50) on M. tuberculosis LeuRS (read-out: IC50 M.tb LeuRS) worked out at 0.64 µM. For the same compound, in the experiment with M. tuberculosis H37Rv, the MIC turned out to be 1.8 µg/mL (≈ 11 µM).

`O=C(N[C@H](CO)[C@H](O)c1ccc([N+](=O)[O-])cc1)C(Cl)Cl` [Chloramphenicol, chloramphenicol]: the figures for the EC50 in the experiment on COX1 in HepG2 cells, in the experiment with SDHA in HepG2 cells and in the experiment with HepG2 cells were 31.4 ± 23.2 µM, greater than 150 µM and 110 ± 14.1 µM, respectively.

For the compound `CCOc1cccc2c1B(O)O[C@H]2CN` [Compound 3], on M. tuberculosis LeuRS (read-out: IC50 M.tb LeuRS), the IC50 came to 21 µM. Moreover, in the experiment on Vero cells, the EC50 is greater than 50 µM.

The compound `CCOc1ccc(Cl)c2c1B(O)OC2CN` (stereo not shown) [Compound 4] yielded an IC50 against M. tuberculosis LeuRS of 0.09 µM. In addition, in the experiment with M. tuberculosis H37Rv, the “improvement of MIC values over compound 1” value is “more than 5 fold” and the MIC came out at 0.04 µg/mL (≈ 0.166 µM). This compound also returned an EC50 with Vero cells greater than 50 µM.

For `CCOc1cc(Cl)cc2c1B(O)OC2CN` (stereo not shown) [Compound 5], on M. tuberculosis LeuRS (read-out: IC50 M.tb LeuRS), the IC50 worked out at 0.38 µM. In addition, in the experiment with M. tuberculosis H37Rv, the “MIC M.tb H37Rv” value was no less than 1.1 µg/mL and the minimum inhibitory concentration (MIC) stood at 1.2 µg/mL (≈ 4.97 µM). This compound also had an EC50 with Vero cells of 43 µM.

With `CCOc1ccc(F)c2c1B(O)OC2CN` (stereo not shown) [Compound 6], on M. tuberculosis LeuRS (read-out: IC50 M.tb LeuRS), the IC50 was 0.11 µM. Moreover, in the experiment with M. tuberculosis H37Rv, the “improvement of MIC values over compound 1” value is “more than 5 fold” and the minimum inhibitory concentration (MIC) worked out at 0.05 µg/mL (≈ 0.222 µM). In addition, in the experiment on Vero cells, the half-maximal effective concentration (EC50) is greater than 50 µM.

As to `CCOc1c(F)ccc2c1B(O)OC2CN` (stereo not shown) [Compound 7], on M. tuberculosis LeuRS (read-out: IC50 M.tb LeuRS), the half-inhibitory concentration (IC50) amounted to 0.56 µM. In the experiment with M. tuberculosis H37Rv, the “MIC M.tb H37Rv” value was no less than 1.1 µg/mL and the minimum inhibitory concentration (MIC) is greater than 1.1 µg/mL. For the same compound, the 50% effective concentration (EC50) with Vero cells is greater than 50 µM.

As to `CCOc1ccc(C)c2c1B(O)OC2CN` (stereo not shown) [Compound 8], the IC50 on M. tuberculosis LeuRS (read-out: IC50 M.tb LeuRS) is 0.2 µM. In addition, in the experiment with M. tuberculosis H37Rv, the minimum inhibitory concentration (MIC) stood at 0.04 µg/mL (≈ 0.181 µM). The concentration giving a half-maximal response (EC50) in the experiment with Vero cells is greater than 50 µM.

Turning to `CCOc1ccc(CC)c2c1B(O)OC2CN` (stereo not shown) [Compound 9], at M. tuberculosis LeuRS (read-out: IC50 M.tb LeuRS), the concentration for half-maximal inhibition (IC50) stood at 0.31 µM. Besides, the minimal inhibitory concentration (MIC) in the experiment on M. tuberculosis H37Rv was determined as 0.29 µg/mL (≈ 1.23 µM). The same compound had an EC50 with Vero cells greater than 50 µM.

In the case of `CCOc1ccc(-c2ccccc2)c2c1B(O)OC2CN.Cl` (stereo not shown) [Compound 10, 3-(Aminomethyl)-7-ethoxy-4-phenylbenzo[c][1,2]oxaborol-1(3H)-ol hydrochloride], the concentration for half-maximal inhibition (IC50) on M. tuberculosis LeuRS (read-out: IC50 M.tb LeuRS) is 28 µM. For the same compound, the MIC in the experiment with M. tuberculosis H37Rv is 17 µg/mL. Besides, the EC50 in the experiment on Vero cells was greater than 50 µM.

Take `C[C@H]1c2cccc(O)c2C(=O)C2=C(O)[C@]3(O)C(=O)C(C(N)=O)=C(O)[C@@H](N(C)C)[C@@H]3[C@@H](O)[C@@H]21` [Doxycycline, doxycycline]: the EC50 with COX1 in HepG2 cells came out at 23.7 ± 6.4 µM; with SDHA in HepG2 cells, 109 ± 29 µM; with HepG2 cells it was 118 ± 35.5 µM.

Take `CC[C@H]1OC(=O)[C@H](C)[C@@H](O[C@H]2C[C@@](C)(OC)[C@@H](O)[C@H](C)O2)[C@H](C)[C@@H](O[C@@H]2O[C@H](C)C[C@H](N(C)C)[C@H]2O)[C@](C)(O)C[C@@H](C)C(=O)[C@H](C)[C@@H](O)[C@]1(C)O` [Erythromycin, erythromycin]: the EC50 in the experiment on COX1 in HepG2 cells, with SDHA in HepG2 cells and in the experiment with HepG2 cells was greater than 150 µM each time.
